This passage reports EC50 results from ChEMBL document CHEMBL1151298, “Plant anticancer agents XXIX. Cleomiscosin A from Simaba multiflora, Soulamea soulameoides, and Matayba arborescens” (1984).

≈ marks a conversion by molar mass, not a printed value.

The test system of assay [1] is KB. Description: Cytotoxicity against human KB cells. Type of assay: functional. As to conditions: read-out: ED50 (the source's name).
The test system of assay [2] is P388. The assay is described as follows: Cytotoxicity against mouse P388 cells. As to conditions: read-out: ED50 (the source's name). Type of assay: functional.

For `COc1cc([C@H]2Oc3c(OC)cc4ccc(=O)oc4c3O[C@@H]2CO)ccc1O` [CLEOMISCOSIN A], the results for the EC50 in assay [1] and in assay [2] were 4.9 µg/mL (≈ 12.7 µM) and 3.8 µg/mL (≈ 9.84 µM), respectively.
